In patent US10207002B2, “Sustained release formulation and tablets prepared therefrom” (Merck Sharp & Dohme Corp., priority 2015, dated 2019):

How the values were obtained:
[1] = Solubility in a basic environment, such as the intestine; type: physicochemical
[2] = Bioavailability on co-administration with a proton-pump inhibitor; type: in vivo; details: co-administered with a proton-pump inhibitor

Row | SMILES | Solubility [1] | Bioavailability [2]
1 | COCCOc1ccc(N2CCN(CCn3ncc4c3nc(N)n3nc(-c5ccco5)nc43)CC2)cc1 [Formula IA, preladenant] | poorly soluble | sharp drop in bioavailability
2 | CC#Cc1nc2c3cnn(CCN4CCN(c5cc6c(C)noc6cc5F)CC4)c3nc(N)n2n1 [Formula IB] | poorly soluble | –
